Data published in US20230202989A1, “COMPOUNDS” (JANSSEN PHARMACEUTICA NV, priority 2020, published 2023).
pEC50, pIC50: −log10 of the molar value.

Legend:
IL-1β = experiment: PBMC assay: inhibition of IL-1β release after LPS stimulation (MSD); type: cell-based; conditions: Homo sapiens, PBMC, 6 h, human PBMCs, 100 ng/ml LPS for 6 hrs, MSD, 96 well plates; read-out: IL1β IC50
Protocol: Peripheral venous blood s collected from health individuals and human peripheral blood mononuclear cells (PBMCs) ere isolated from blood by Ficoll Histopaque (Sigma-Aldrich, A0561) density gradient centrifugation. After isolation, PBMCs were stored in liquid nitrogen for later use. Upon thawing, PBMC cell viability was determined in growth medium (RPMI media supplemented with 10% fetal bovine serum, 1% Pen-Strep and 1% L-glutamine). […] PBMCs were added at a density of 7.5×10^4 cells per well and incubated for 30 min in a 5% CO2 incubator at 37° C. LPS stimulation was performed by addition of 100 ng/ml LPS (final concentration, Invivogen, tlrl-smlps) for 6 hrs followed by collection of cellular supernatant and the analysis of IL-1β (μM) and TNF cytokines levels (μM) via MSD technology according to manufacturers' guidelines (MSD, K151A0H).
(§1) The IC50 values (for IL-1β) and EC50 values (TNF) were obtained on compounds of the invention/examples, and are depicted in the following table: […]

TNF = experiment: PBMC assay: TNF cytokine levels after LPS stimulation (MSD); type: cell-based; conditions: Homo sapiens, PBMC, 6 h, human PBMCs, 100 ng/ml LPS for 6 hrs
Protocol: Peripheral venous blood s collected from health individuals and human peripheral blood mononuclear cells (PBMCs) ere isolated from blood by Ficoll Histopaque (Sigma-Aldrich, A0561) density gradient centrifugation. After isolation, PBMCs were stored in liquid nitrogen for later use. Upon thawing, PBMC cell viability was determined in growth medium (RPMI media supplemented with 10% fetal bovine serum, 1% Pen-Strep and 1% L-glutamine). Compounds were spotted in a 1:3 serial dilution in DMSO and diluted to the final concentration in 30 μl medium in 96 well plates (Falcon, 353072). PBMCs were added at a density of 7.5×10^4 cells per well and incubated for 30 min in a 5% CO2 incubator at 37° C. LPS stimulation was performed by addition of 100 ng/ml LPS (final concentration, Invivogen, tlrl-smlps) for 6 hrs followed by collection of cellular supernatant and the analysis of IL-1β (μM) and TNF cytokines levels (μM) via MSD technology according to manufacturers' guidelines (MSD, K151A0H).
as §1

Row | SMILES | pIC50 (IL-1β) | pEC50 (TNF)
1 | CCc1nn(CC(=O)N[C@H]2C[C@@](C)(O)C2)c(=O)c2ccc(C(F)F)cc12 [Final Cpd 17] | 6.27 | < 5.00
2 | CCc1nn(CC(=O)N[C@H]2C[C@@](C)(O)C2)c(=O)c2ccc(Br)cc12 [Final Cpd 18] | 7.52 | < 5.00
3 | CCc1nn(CC(=O)N[C@H]2C[C@@](C)(O)C2)c(=O)c2ccc(C(F)(F)F)cc12 [Final Cpd 19] | 6.85 | < 5.00
4 | CCc1nn(CC(=O)N[C@H]2C[C@@](C)(O)C2)c(=O)c2ccc(C(C)C)cc12 [Final Cpd 20] | 6.62 | < 5.00
5 | CCc1nn(CC(=O)N[C@H]2C[C@@](C)(O)C2)c(=O)c2ccc(C3CC3)cc12 [Final Cpd 21] | 6.54 | < 5.00
6 | CCc1ccc2c(=O)n(CC(=O)N[C@H]3C[C@@](C)(O)C3)nc(CC)c2c1 [Final Cpd 22] | 6.47 | < 5.00
7 | CC(C)c1nn(CC(=O)Nc2ccncn2)c(=O)c2ccc(C3CC3)cc12 [Final Cpd 23] | 6.54 | 4.92
8 | CCc1nn(CC(=O)N[C@H]2CC[C@H](O)CC2)c(=O)c2ccc(Br)cc12 [Final Cpd 24, trans-2-(6-bromo-4-ethyl-1-oxo-phthalazin-2-yl)-N-(4-hydroxycyclohexyl)acetamide] | 6.05 | < 5.00
9 | CC(C)c1nn(CC(=O)N[C@H]2C[C@@](C)(O)C2)c(=O)c2ccc(C(F)(F)F)cc12 [Final Cpd 25] | 7.24 | 4.81
10 | CCc1nn(CC(=O)N[C@H]2CC[C@H](O)CC2)c(=O)c2ccc(C)cc12 [Final Cpd 26, trans-2-(6-methyl-4-ethyl-1-oxo-phthalazin-2-yl)-N-(4-hydroxycyclohexyl)acetamide] | < 5.00 | < 5.00
11 | CCc1nn(CC(=O)N[C@H]2CC[C@H](O)CC2)c(=O)c2ccc(C3CC3)cc12 [Final Cpd 27] | 5.78 | < 5.00
12 | CCc1nn(CC(=O)N[C@H]2CC[C@H](O)CC2)c(=O)c2ccc(C(C)C)cc12 [Final Cpd 28] | 6.01 | < 5.00
13 | CCc1ccc2c(=O)n(CC(=O)N[C@H]3CC[C@H](O)CC3)nc(CC)c2c1 [Final Cpd 29] | 5.44 | < 5.00
14 | CCc1nn(CC(=O)N[C@H]2CC[C@H](O)CC2)c(=O)c2ccc(C(F)(F)F)cc12 [Final Cpd 30] | 5.89 | < 5.00
15 | CC(C)c1nn(CC(=O)Nc2ccc3nncn3c2)c(=O)c2ccc(C3CC3)cc12 [Final Cpd 31] | 6.99 | 4.87
16 | CC(C)c1nn(CC(=O)N[C@H]2C[C@@](C)(O)C2)c(=O)c2ccc(C3CC3)cc12 [Final Cpd 32] | 6.67 | < 4.70
17 | CC(C)c1ccc2c(=O)n(CC(=O)Nc3ccc4nncn4c3)nc(C(C)C)c2c1 [Final Cpd 33] | > 6.92 | < 5.00
18 | CC(C)c1ccc2c(=O)n(CC(=O)N[C@H]3C[C@@](C)(O)C3)nc(C(C)C)c2c1 [Final Cpd 34] | > 6.92 | < 5.00
19 | CC(C)c1ccc2c(=O)n(CC(=O)Nc3ccncn3)nc(C(C)C)c2c1 [Final Cpd 35] | 6.77 | < 5.00
20 | CC(C)c1nn(CC(=O)Nc2ccc3nncn3c2)c(=O)c2ccc(Br)cc12 [Final Cpd 36] | > 7.60 | < 5.00
21 | CC(C)c1nn(CC(=O)N[C@H]2C[C@@](C)(O)C2)c(=O)c2ccc(Br)cc12 [Final Cpd 37] | > 7.60 | < 5.00

Row | SMILES | pIC50 (IL-1β) | pEC50 (TNF)
22 | CC(C)c1nn(CC(=O)Nc2ccncn2)c(=O)c2ccc(Br)cc12 [Final Cpd 38] | > 7.60 | < 5.00
23 | CC(C)c1nn(CC(=O)Nc2ccc3nncn3n2)c(=O)c2ccc(C(F)(F)F)c(F)c12 [Final Cpd X3] | 7.29 | 5.40
24 | C[C@]1(O)C[C@@H](NC(=O)Cn2nc(C3CC3)c3cc(C(F)(F)F)ccc3c2=O)C1 [Final Cpd X4] | 7.22 | < 4.70
25 | CC(C)c1nn(CC(=O)Nc2ccc3c(c2)[nH]c(=O)n3C)c(=O)c2ccc(C(F)(F)F)cc12 [Final Cpd X5] | 7.19 | < 4.70
26 | CCN1CC[C@@H](O)[C@@H](NC(=O)Cn2nc(C(C)C)c3cc(C(F)(F)F)ccc3c2=O)C1 [Final Cpd X6, N-((3S,4R)-1-ethyl-4-hydroxypiperidin-3-yl)-2-(4-isopropyl-1-oxo-6-(trifluoromethyl)phthalazin-2(1H)-yl)acetamide] | 7.18 | < 4.70
27 | CCc1nn(CC(=O)Nc2ccc3nncn3c2)c(=O)c2ccc(C(F)(F)F)cc12 [Final Cpd X8] | 7.12 | 4.91
28 | CCN1CCC[C@@H](NC(=O)Cn2nc(C(C)C)c3cc(C(F)(F)F)ccc3c2=O)C1 [Final Cpd X9] | 7.05 | < 4.70
29 | CC(C)c1nn(CC(=O)N[C@@H]2CCCN(C3CC3)C2)c(=O)c2ccc(C(F)(F)F)cc12 [Final Cpd X10] | 7.04 | < 4.70
30 | CC(C)c1nn(CC(=O)Nc2nc(Cl)c3nc[nH]c3n2)c(=O)c2ccc(C(F)(F)F)cc12 [Final Cpd X11, N-(6-chloro-9H-purin-2-yl)-2-(4-isopropyl-1-oxo-6-(trifluoromethyl)phthalazin-2(1H)-yl)acetamide] | 6.98 | < 4.70
31 | CC(C)c1nn(CC(=O)Nc2cn3cnnc3cn2)c(=O)c2ccc(C(F)(F)F)cc12 [Final Cpd X14, N-([1,2,4]triazolo[4,3-a]pyrazin-6-yl)-2-(4-isopropyl-1-oxo-6-(trifluoromethyl)phthalazin-2(1H)-yl)acetamide] | 6.94 | < 4.70
32 | CC(C)c1nn(CC(=O)N[C@H]2CN(C3CC3)CC[C@H]2O)c(=O)c2ccc(C(F)(F)F)cc12 [Final Cpd X15, N-((3S,4R)-1-cyclopropyl-4-hydroxypiperidin-3-yl)-2-(4-isopropyl-1-oxo-6-(trifluoromethyl)phthalazin-2(1H)-yl)acetamide] | 6.91 | < 4.70
33 | CC(C)c1nn(CC(=O)N[C@H]2C[C@@](C)(O)C2)c(=O)c2ccc(C(F)(F)F)c(F)c12 [Final Cpd X17] | 6.83 | < 4.70
34 | CC(C)c1nn(CC(=O)Nc2ccc3nnnn3n2)c(=O)c2ccc(C(F)(F)F)cc12 [Final Cpd X18] | 6.81 | < 4.70
35 | CCC(C)c1nn(CC(=O)Nc2ccc3nncn3c2)c(=O)c2ccc(C(F)(F)F)cc12 (stereo not shown) [Final Cpd X24] | 6.76 | < 4.70
36 | CC(C)c1nn(CC(=O)Nc2ccc3ncn(C)c3c2)c(=O)c2ccc(C(F)(F)F)cc12 [Final Cpd X25] | 6.75 | < 4.70
37 | CC(C)c1nn(CC(=O)Nc2ccc3nncn3c2)c(=O)c2ccc(C(F)(F)F)c(F)c12 [Final Cpd X26] | 6.73 | < 4.70
38 | Cc1cn2cc(NC(=O)Cn3nc(C(C)C)c4cc(C(F)(F)F)ccc4c3=O)ccc2n1 [Final Cpd X27] | 6.72 | < 4.70
39 | Cc1cc(NC(=O)Cn2nc(C(C)C)c3cc(C(F)(F)F)ccc3c2=O)cn2cnnc12 [Final Cpd X28, 2-(4-isopropyl-1-oxo-6-(trifluoromethyl)phthalazin-2(1H)-yl)-N-(8-methyl-[1,2,4]triazolo[4,3-a]pyridin-6-yl)acetamide] | 6.71 | < 4.70
40 | CO[C@]1(C)C[C@H](NC(=O)Cn2nc(C(C)C)c3cc(C(F)(F)F)ccc3c2=O)C1 [Final Cpd X29, 2-(4-isopropyl-1-oxo-6-(trifluoromethyl)phthalazin-2(1H)-yl)-N-((1s,3s)-3-methoxy-3-methylcyclobutyl)acetamide] | 6.67 | < 4.70
41 | CCc1nn(CC(=O)Nc2ccnnc2)c(=O)c2ccc(C(F)(F)F)cc12 [Final Cpd X30] | 6.66 | < 4.70
